{"source": "patent US20150050219A1", "about": "“COLOURED SOLUTION IN PARTICULAR FOR USE IN SURGICAL METHODS FOR THE TREATMENT OF THE BODIES OF HUMANS OR ANIMALS” (BBS S.r.l., priority 2012, published 2015)", "test": "density at 20° C.", "assay_type": "physicochemical", "details": "temperature of 20° C.", "procedure": "whilst the dye is defined by the formula (V) and is present in a weight ratio of 0.008% to the solvent. In particular, with the solvent consisting of perfluorooctane (VI), the solution has an absorbance equal to 1,403 at a wavelength of 580 nm. Said solution also has a density of 1,756 kg/l at a temperature of 20° C. (substantially equal to that of perfluorooctane alone which, at 20° C., is equal to 1,755).", "data": [{"smiles": "FC(F)(F)C(F)(F)C(F)(F)C(F)(F)C(F)(F)C(F)(F)C(F)(F)C(F)(F)F", "note": "[perfluorooctane]", "values": [{"measurement": "density", "result": "1,755 kg/l"}]}]}
